The source made the active and inactive calls.
Key:
[1] = target: T1, Heat shock factor protein 1 (Mus musculus, UniProt P38532); assay: enhancement of HSF1-driven luciferase signal – cell-based, NIH3T3, luminescence, dose retest, confirmation (AID 435004); type: functional;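 further: stress induced by proteasome inhibitor MG132 added 30 min after compound; luciferase reporter driven by HSF1 response element in NIH3T3 cells; actives raise luminescence as potentiators of the MG132 stress response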
T1 sequence (P38532 whole entry): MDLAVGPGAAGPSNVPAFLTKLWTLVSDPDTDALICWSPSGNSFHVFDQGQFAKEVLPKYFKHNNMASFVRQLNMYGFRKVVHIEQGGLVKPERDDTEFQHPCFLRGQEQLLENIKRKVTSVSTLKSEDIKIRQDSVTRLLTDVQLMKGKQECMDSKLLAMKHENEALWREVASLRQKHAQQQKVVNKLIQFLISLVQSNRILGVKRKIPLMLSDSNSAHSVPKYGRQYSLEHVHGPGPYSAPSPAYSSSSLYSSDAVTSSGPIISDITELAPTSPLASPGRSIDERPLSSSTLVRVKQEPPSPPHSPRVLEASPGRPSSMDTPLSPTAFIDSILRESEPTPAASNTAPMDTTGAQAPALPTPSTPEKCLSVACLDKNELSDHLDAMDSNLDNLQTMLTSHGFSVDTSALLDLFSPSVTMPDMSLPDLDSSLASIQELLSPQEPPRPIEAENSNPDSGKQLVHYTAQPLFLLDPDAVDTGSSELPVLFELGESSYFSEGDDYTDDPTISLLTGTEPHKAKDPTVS

[2] = Luminescence Cell-Based Dose Retest to Confirm Inhibitors of Cancer Stem Cells. [Related pubchem assays (depositor defined):AID2717, AID2721]; type: functional; settings: Homo sapiens
[3] = target: T2, Microphthalmia-associated transcription factor (Homo sapiens, UniProt O75030); assay: reducers of TRPM1 reporter luminescence, concentration series – cell-based, SK-MEL-5, cherry-picked, set 3, MITF inhibitor project, dose response (AID 493073); type: functional;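 further: SK-MEL-5 melanoma cells with luciferase driven by the MITF target TRPM1 promoter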
T2 sequence (O75030 whole entry): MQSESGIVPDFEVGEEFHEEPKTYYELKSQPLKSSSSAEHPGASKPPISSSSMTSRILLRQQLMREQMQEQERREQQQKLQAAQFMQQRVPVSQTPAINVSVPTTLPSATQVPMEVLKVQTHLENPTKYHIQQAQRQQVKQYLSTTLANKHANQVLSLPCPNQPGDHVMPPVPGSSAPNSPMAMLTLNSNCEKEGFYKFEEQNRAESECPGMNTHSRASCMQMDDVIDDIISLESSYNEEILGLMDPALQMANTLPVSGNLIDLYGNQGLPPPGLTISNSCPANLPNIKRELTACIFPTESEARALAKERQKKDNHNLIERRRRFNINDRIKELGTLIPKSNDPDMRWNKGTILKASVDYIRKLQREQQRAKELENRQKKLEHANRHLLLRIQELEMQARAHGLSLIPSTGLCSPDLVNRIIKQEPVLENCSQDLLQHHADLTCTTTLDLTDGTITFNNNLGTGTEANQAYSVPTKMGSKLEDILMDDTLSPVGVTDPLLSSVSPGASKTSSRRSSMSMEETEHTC

[4] = target: T3, Replicative DNA helicase DnaB (Mycobacterium tuberculosis, UniProt P9WMR3); assay: DnaB intein splicing inhibitors, dose response, biochemical, cell-free fluorescence (AID 449749); type: functional
T3 sequence (P9WMR3 whole entry): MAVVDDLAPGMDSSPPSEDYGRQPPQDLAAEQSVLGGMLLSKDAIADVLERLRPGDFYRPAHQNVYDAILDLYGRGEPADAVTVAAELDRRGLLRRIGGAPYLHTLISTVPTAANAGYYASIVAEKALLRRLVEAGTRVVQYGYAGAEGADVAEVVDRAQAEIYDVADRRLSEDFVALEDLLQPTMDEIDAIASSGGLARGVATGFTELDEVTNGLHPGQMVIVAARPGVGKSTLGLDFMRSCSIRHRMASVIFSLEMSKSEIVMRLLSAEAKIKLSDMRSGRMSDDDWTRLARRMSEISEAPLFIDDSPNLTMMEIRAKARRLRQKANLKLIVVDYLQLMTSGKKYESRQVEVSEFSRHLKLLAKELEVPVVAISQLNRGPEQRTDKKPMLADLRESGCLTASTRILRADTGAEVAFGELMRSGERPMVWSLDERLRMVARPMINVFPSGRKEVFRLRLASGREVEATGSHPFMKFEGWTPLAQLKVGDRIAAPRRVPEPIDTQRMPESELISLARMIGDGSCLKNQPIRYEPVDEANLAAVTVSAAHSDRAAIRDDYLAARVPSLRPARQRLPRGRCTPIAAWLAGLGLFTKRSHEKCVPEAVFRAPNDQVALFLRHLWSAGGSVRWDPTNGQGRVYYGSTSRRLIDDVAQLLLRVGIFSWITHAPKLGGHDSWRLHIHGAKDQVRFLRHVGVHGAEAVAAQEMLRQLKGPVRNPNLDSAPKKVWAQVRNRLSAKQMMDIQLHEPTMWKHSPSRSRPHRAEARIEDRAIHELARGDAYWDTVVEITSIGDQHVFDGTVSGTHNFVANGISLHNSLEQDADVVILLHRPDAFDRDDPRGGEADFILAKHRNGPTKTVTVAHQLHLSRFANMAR

Protein RecA = target: T4, Protein RecA (Mycobacterium tuberculosis, UniProt P9WHJ3); assay: Fluorescence Cell-Free Homogeneous Dose Retest to Identify Inhibitors of RecA-Intein Splicing Activity. [Related pubchem assays (depositor defined):AID2097, AID2223, AID489010, AID492950]; type: functional
T4 sequence (P9WHJ3 whole entry): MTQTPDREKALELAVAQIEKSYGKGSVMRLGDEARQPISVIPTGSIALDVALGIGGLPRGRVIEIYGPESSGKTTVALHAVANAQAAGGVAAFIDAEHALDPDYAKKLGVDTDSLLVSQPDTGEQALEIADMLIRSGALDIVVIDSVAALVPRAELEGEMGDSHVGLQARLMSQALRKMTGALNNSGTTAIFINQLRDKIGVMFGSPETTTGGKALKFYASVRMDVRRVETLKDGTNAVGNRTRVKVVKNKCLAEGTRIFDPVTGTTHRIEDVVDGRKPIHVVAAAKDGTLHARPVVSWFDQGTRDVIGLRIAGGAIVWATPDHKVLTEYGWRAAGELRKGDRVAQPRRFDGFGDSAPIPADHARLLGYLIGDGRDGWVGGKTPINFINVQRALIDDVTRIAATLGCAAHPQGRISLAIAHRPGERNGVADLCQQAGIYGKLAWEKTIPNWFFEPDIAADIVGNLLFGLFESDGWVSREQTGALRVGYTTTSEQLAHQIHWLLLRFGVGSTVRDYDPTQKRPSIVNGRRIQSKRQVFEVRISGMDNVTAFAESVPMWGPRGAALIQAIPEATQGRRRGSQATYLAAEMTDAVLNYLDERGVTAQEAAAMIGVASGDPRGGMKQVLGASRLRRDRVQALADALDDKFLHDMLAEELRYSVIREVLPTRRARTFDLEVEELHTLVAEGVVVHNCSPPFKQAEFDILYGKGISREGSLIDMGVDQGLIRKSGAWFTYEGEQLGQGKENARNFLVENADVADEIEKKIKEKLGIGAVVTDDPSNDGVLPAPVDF

[5] = target: T5, High affinity choline transporter 1 (Homo sapiens, UniProt Q9GZV3); assay: human choline transporter blockers, potency – cell-based, 5-point CRC, membrane potential dye, dose response (AID 504840); type: functional
T5 sequence (Q9GZV3 whole entry): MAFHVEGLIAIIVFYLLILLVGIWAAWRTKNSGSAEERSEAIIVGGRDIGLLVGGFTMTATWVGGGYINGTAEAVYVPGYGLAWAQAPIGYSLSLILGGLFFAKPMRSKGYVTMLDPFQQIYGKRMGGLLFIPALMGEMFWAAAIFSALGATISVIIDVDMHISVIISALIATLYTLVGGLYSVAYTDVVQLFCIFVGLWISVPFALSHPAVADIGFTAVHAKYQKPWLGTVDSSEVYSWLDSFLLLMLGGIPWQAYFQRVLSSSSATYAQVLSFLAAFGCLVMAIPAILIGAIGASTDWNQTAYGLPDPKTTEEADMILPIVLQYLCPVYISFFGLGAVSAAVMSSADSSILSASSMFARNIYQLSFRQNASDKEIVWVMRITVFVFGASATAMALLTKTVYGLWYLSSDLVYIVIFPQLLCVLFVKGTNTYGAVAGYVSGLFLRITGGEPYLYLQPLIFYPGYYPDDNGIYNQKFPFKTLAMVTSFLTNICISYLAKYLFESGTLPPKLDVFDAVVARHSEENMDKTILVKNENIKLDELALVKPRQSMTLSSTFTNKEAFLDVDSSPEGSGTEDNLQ

[6] = microbe, parasite or virus in culture; type: functional; settings: Mycobacterium tuberculosis
cells [7] = type: functional
[8] = target: Voltage-dependent T-type calcium channel subunit alpha-1H (Homo sapiens, UniProt O95180); type: functional;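 further: channel activity triggered by adding a high calcium stimulation buffer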
[9] = blockers of bursicon-stimulated LGR2 cAMP reporter – cell-based, HEK293, CRE-luciferase reporter, cherry pick, set 2, dose response (AID 743343); type: functional;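 further: transfected cells were stimulated with diluted bursicon conditioned medium after compound addition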
[10] = blockade of melanocortin 4 receptor signaling – cell-based, plate reader, cherry pick, counter-screen for LGR2 antagonist project, dose response (AID 743444); type: functional;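 further: transfected HEK 293 cells stimulated with alpha-MSH peptide; potency of inhibitors of the alpha-MSH evoked signal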
cells [11] = type: functional, cell-based
cells [12] = type: functional, cell-based; remark: listed apart in the source
Cytochrome P450 2D6 = Cytochrome P450 2D6 (Homo sapiens, UniProt P10635);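 further: CYP2D6 member of a cytochrome P450 panel assay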
[13] = P. falciparum Dd2 growth inhibitors, dose response, SYBR Green, cherry-picked samples (AID 1159567); type: functional, cell-based

Cytochrome P450 2D6, sequence (P10635 whole entry): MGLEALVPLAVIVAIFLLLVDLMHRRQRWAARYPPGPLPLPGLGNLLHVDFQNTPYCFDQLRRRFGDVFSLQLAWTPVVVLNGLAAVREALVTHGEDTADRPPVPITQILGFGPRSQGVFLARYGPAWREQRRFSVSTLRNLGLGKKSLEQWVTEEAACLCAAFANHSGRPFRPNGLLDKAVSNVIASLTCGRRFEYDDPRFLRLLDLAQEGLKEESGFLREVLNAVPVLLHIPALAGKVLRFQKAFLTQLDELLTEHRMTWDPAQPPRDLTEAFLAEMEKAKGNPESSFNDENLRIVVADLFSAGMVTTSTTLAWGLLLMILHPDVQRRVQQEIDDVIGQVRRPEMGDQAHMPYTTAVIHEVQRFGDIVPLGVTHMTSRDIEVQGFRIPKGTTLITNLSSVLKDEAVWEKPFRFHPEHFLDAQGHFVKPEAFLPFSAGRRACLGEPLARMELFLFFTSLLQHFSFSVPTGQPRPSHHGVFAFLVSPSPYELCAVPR
Voltage-dependent T-type calcium channel subunit alpha-1H, sequence (O95180 whole entry): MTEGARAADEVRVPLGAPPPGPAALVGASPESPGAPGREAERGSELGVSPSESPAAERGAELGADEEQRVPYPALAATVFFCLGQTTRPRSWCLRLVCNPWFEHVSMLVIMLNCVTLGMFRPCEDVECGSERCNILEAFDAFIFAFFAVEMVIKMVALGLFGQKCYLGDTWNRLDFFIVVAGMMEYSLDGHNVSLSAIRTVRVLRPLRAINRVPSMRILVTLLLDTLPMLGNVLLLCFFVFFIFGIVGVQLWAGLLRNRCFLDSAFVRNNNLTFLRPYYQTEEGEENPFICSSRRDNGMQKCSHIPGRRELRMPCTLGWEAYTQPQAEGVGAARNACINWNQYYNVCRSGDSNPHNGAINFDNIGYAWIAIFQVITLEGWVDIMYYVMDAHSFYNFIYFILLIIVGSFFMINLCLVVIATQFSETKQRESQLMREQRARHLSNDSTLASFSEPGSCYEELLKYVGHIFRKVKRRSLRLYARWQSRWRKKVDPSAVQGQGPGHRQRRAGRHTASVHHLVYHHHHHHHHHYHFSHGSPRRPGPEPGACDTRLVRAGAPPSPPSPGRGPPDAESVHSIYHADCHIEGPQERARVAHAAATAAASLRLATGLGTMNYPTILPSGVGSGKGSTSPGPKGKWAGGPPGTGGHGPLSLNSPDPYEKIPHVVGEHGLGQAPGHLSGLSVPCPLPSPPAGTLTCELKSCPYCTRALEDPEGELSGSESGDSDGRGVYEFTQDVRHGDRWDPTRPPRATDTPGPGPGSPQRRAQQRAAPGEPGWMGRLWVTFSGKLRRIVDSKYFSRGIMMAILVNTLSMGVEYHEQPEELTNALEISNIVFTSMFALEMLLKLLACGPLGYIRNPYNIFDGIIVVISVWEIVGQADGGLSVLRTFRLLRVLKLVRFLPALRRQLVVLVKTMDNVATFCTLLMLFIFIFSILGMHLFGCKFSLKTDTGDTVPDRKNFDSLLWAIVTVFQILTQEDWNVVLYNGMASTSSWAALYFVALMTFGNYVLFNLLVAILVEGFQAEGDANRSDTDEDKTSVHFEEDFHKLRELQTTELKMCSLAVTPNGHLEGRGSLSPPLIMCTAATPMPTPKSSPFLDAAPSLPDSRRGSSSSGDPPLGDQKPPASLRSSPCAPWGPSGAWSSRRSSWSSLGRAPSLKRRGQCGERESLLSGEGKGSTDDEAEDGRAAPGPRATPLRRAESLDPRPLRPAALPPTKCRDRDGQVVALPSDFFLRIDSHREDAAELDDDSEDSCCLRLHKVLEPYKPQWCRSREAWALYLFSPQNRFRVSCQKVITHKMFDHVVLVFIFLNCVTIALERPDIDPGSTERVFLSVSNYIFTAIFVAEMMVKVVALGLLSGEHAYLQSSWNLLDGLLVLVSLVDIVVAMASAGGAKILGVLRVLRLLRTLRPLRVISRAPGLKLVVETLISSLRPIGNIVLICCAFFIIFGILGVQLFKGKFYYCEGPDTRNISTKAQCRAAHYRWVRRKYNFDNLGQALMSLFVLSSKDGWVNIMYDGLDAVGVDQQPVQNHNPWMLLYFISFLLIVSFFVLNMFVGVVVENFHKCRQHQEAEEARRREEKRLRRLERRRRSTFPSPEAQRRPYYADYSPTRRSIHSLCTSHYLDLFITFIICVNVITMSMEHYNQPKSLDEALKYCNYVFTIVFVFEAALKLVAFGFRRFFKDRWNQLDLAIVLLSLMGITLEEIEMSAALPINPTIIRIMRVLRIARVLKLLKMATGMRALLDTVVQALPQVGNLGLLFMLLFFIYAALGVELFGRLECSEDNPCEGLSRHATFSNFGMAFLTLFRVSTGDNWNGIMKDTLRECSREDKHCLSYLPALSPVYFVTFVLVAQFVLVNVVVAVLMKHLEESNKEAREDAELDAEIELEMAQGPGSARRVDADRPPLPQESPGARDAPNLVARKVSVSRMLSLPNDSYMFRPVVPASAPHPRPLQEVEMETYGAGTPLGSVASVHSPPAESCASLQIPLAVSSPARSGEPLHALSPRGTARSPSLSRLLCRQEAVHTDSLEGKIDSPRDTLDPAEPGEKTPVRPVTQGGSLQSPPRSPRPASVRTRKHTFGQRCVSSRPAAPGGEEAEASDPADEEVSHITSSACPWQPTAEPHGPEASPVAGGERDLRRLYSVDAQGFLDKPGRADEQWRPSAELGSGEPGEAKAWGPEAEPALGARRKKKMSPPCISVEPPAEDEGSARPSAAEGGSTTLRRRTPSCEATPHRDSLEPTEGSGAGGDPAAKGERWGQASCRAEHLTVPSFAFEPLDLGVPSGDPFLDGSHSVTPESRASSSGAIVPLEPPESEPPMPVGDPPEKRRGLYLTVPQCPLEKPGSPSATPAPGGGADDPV

## CS(=O)(=O)c1ccc(Cl)c(C(=O)NCC2CCCCC2)c1
[1]
  EC50: > 260 µM (inactive)

## COC(=O)[C@@H]1C[C@]2(OC(=O)c3ccccc3)C=CC(=O)C[C@@H]2N1C(=O)OCc1ccccc1
[2]
  AC50: 6.36 µM (active)
[1]
  EC50: 18.5 µM (active)
[3]
  AC50: 14 µM (active)
[4]
  AC50: 8.72 µM (active)
Protein RecA
  EC50: 10.5 µM (active)

## CCCCCNC(=O)C1CCC(Cn2c(=S)[nH]c3ccccc3c2=O)CC1 (centres undefined)
[1]
  EC50: > 260 µM (inactive)

## CN(Cc1ccccc1)c1nc(N)nc(Cl)c1C=O
[5]
  IC50: 15.1 µM (active)

## COc1ccc(S(=O)(=O)Nc2cc3c4c(oc3c3ccccc23)CCCC4=O)cc1
[1]
  EC50: > 260 µM (inactive)

## COc1ccc(OC)c(NC(=O)CNC(c2ccccc2)c2ccccc2)c1
[1]
  EC50: > 260 µM (inactive)

## Cc1cc(OCc2cc(C(=O)N(C)CCc3cnn(C)c3)no2)cc(C)c1Cl
[6]
  CC50: > 40 µM (active)
Cells [7]
  IC50: 29.6 µM (active)

## COc1ccccc1N1CCN(C(=O)C(CC(C)C)NC(=O)C2CCCCC2)CC1 (centres undefined)
[1]
  EC50: > 260 µM (inactive)

## O=S(=O)(c1ccc(Oc2ccccc2)cc1)N1CCOCC1
[1]
  EC50: > 260 µM (inactive)

## CCc1nnc(NS(=O)(=O)c2ccc(NC(=O)c3cccc(Br)c3)cc2)s1
[5]
  IC50: 13.2 µM (active)

## Cc1cc(C)cc(-n2c(C)c3c(C)nnc(C)c3c2C)c1
[6]
  CC50: > 40 µM (active)

## Cc1ccc(CNC(=O)Cn2ccc3ccccc3c2=O)o1
[1]
  EC50: > 260 µM (inactive)

## CCCCCOc1ccc(N2C(=O)C3C4C=CC(C3C2=O)N(C)C4=O)cc1 (centres undefined)
[6]
  CC50: > 40 µM (active)

## CCc1ccccc1NC(=O)c1ccc(CN2CCC(Cc3ccccc3)CC2)cc1
[8]
  EC50: 0.111 µM (active)
[5]
  IC50: 13.8 µM (active)

## O=C(CCCc1ccccc1)Nc1cccc(C(=O)O)c1
[3]
  AC50: 4.42 µM (active)
[9]
  AC50: 2.04 µM (active)
[10]
  AC50: 1.91 µM (active)

## CC1CCN(S(=O)(=O)c2ccc3c(c2)N(CC(=O)NCCCN2C(C)CCCC2C)C(=O)CO3)CC1 (centres undefined)
[5]
  IC50: 13.5 µM (active)

## CCN(CC)S(=O)(=O)c1cccc(C(=O)N/N=C(\C)c2ccc(O)cc2O)c1
Cells [11]
  EC50: 11.7 µM (active)
Cells [12]
  EC50: > 350 µM (not active)
[3]
  AC50: 3.74 µM (active)

## Cc1ccc(NCC(=O)N/N=C\c2ccc([N+](=O)[O-])o2)cc1
[3]
  AC50: 19.1 µM (active)
Cytochrome P450 2D6
  AC50: 15.8 µM (inconclusive)

## C/C(=N\NC1=NCCN1)c1ccccc1
[5]
  IC50: 12.9 µM (active)

## CO[C@@H]1CN(C)C(=O)c2cc(NC(=O)Nc3ccc(C(F)(F)F)cc3)ccc2OC[C@H](C)NC[C@@H]1C
[13]
  AC50: 5.85 µM (active)

## COc1ccc(-c2ccc3c(c2)[C@@H]2[C@@H](CCN2Cc2ccncc2)[C@@H](CO)N3)cc1
[13]
  AC50: 8.88 µM (active)

## N#C[C@@H]1[C@@H](c2ccccc2C2=CCCC2)[C@H](CO)N1C(=O)C1CC1
[13]
  AC50: > 36 µM (inactive)

## COc1ccc2c3c(n(C)c2c1)[C@H](CO)N(C(=O)Nc1ccc(F)cc1)CC31CCN(Cc2ccccn2)CC1
[13]
  AC50: 3.43 µM (active)

Reference: ChEMBL document CHEMBL1201862, “PubChem BioAssay data set” (2004)
